Earlier results as cited in patent publication US12270126B2, “Wound dressing” (University of Central Oklahoma, priority 2019, dated 2025).

Tests used:
[1] = system: Bacillus subtilis (B. subtilis)
[2] = system: Methicillin-resistant S. aureus (MRSA)

Measured: inhibitory effect on microorganism

Cc1ccc(C(C)C)cc1O [carvacrol]
inhibitory effect: Saccharomyces cerevisiae | [1] | [2] | E. coli

Cc1ccc(C(C)C)c(O)c1 [thymol]
inhibitory effect: Saccharomyces cerevisiae | [1] | [2] | E. coli
